The subject of one data set is normal human lymphocytes. In words: MTT cytotoxicity assay on normal human lymphocytes. It is filed as cell-based. Particulars: 24 h incubation, 5 to 600 µM, mean ± SEM of six experiments. An excerpt:
(§1) The cytotoxic effects of dimethyl aminophosphonates 3Aa, 3Ab, 3Ac, 3Ad, 3Ai and dimethyl [hydroxy(pyren-1-yl)methyl]phosphonate (5A) were investigated with two human colorectal carcinoma cell lines: HT29 and HCT116 and also on the normal human lymphocytes. For this a standard MTT (3-(4,5-dimethylthiazol-2-yl)-2,5-diphenyltetrazolium bromide) test was used and results presented as IC50 values (i.e., the concentration of the compound that inhibits 50% growth). The activity of the tested compounds was studied in the concentration range from 5 to 600 µM. […]
(§2) 2.1. Materials and methods
(§3) MTT assay (3-(4,5-dimethylthiazol-2-yl)-2,5-diphenyltetrazolium bromide) facilitates the determination of the level of cell survival after the exposure of cells to potentially toxic substances. The cytotoxicity level of studied compounds was evaluated by determining the dose or concentration that induces a standard biological response. The assessment of the cytotoxic activity of the tested compounds was carried out based on IC50 values – the concentration of the compound which causes inhibition of cell proliferation by 50% as compared to the negative control. To determine the above concentration, was created graphs of cell viability expressed in percentages, depending on the concentrations of studied […]
(§4) MTT (3(4,5-dimethylthiazol-2-yl)-2,5-diphenyltetrazolium bromide), lauryl sulfate (SLS), N,N-dimethylformamide (DMF), dimethyl sulfoxide (DMSO), penicillin-streptomycin solution stabilized, MEM non-essential amino acids solution, Histopaque 1077, and buffered saline (PBS) were purchased from Sigma Chemical Co. Foetal bovine serum (FBS), phytohemagglutinin (PHA), RPMI 1640 medium and Trypsin-EDTA were supplied by […]
All other chemicals (chemical reagents, substrates, and solvents) were of the highest commercial grade available and were purchased from CytoGen and Sigma–Aldrich.
Lymphocytes were isolated from the peripheral blood of healthy, non-smoking donors of both sexes by centrifugation in a density gradient of Histopaque 1077 (15 min., 300 × g) (blood was obtained from the Blood Donation Center in Lodz, Poland). The cells were suspended in the culture medium containing RPMI 1640, inactivated FBS (15%), penicillin and streptomycin (1%) and PHA (1%). […]
The lymphocytes, HCT116 […]
and HT29 cells were cultured at 37 °C in a humidified atmosphere of 95% air and 5% CO2.
(§5) A MTT assay was used to assess cell survival after treatment with studied compounds. The MTT assay is a quantitative colorimetric method to determine cell proliferation after treatment with the tested compounds. It is widely used to estimate the cytotoxic effect of chemicals on different types of cells. MTT (3(4,5-dimethyl-2-thiazolyl)-2,5-diphenyl-2H-tetrazolium bromide) is a water-soluble tetrazolium salt, which is converted into an insoluble purple formazan by cleavage of the tertazolium ring by succinate dehydrogenase within the mitochondria. The formazan product is impermeable to the cell membranes and therefore it accumulates in living cells. The purple crystals were extracted into a solution for homogeneous staining and the absorbance was read on a spectrophotometer at 595 nm. The percent reduction of MTT was compared to controls (cells not exposed to tested compounds), which represented 100% MTT reduction. The assay was optimized for the cell lines and chemical compounds used in the experiments.
The cancer cells and human lymphocytes were grown for 24 h on 96-well plates at a density of 6–8 × 10^3 cells/well and 8 × 10^5 cells/well, respectively. Then the cells were treated with the tested compounds for 24 h incubation periods in a volume of 50 μl per well for the lymphocytes and 100 μl per well for the HCT116, HT29 cells. Subsequently, a fresh MTT solution (lymphocytes, HCT116 and HT29: 20 μl, 5 mg/ml in sterile PBS) was added to each well for the next 4 h. Purple crystals forming in the cancer cells after the reduction of MTT were dissolved by DMSO (100 μl/well). In the case of lymphocytes this was achieved by […]
(Formazan colour is commonly taken as a measure of viable cells.)

Data set [1] has as its system HT29 human colorectal adenocarcinoma cell line. In words: MTT cytotoxicity assay on HT29 cells. Particulars: 24 h incubation, 5 to 600 µM, mean ± SEM of six experiments. It is filed as cell-based.
Text: as §1, §2, §3, §4
(§6) All other chemicals (chemical reagents, substrates, and solvents) were of the highest commercial grade available and were purchased from CytoGen and Sigma–Aldrich. […]
(§7) The human colorectal carcinoma cell line (HCT116) and the human colorectal adenocarcinoma cell line (HT29) were obtained from the American Type Culture Collection (ATCC, Rockville, USA). The HCT116 cells were cultured in RPMI 1640 supplemented with FBS (10%) and antibiotics (1%): penicillin and streptomycin. The HT29 cells were cultured in RPMI 1640 medium supplemented with FBS (10%), antibiotics (1%): penicillin and streptomycin, and MEM non-essential amino acids solution (1%). The lymphocytes, HCT116 and HT29 cells were cultured at 37 °C in a humidified atmosphere of 95% air and 5% CO2.
as §5
(§8) The cancer cells and human lymphocytes were grown for 24 h on 96-well plates at a density of 6–8 × 10^3 cells/well and 8 × 10^5 cells/well, respectively. Then the cells were treated with the tested compounds for 24 h incubation periods in a volume of 50 μl per well for the lymphocytes and 100 μl per well for the HCT116, HT29 cells. Subsequently, a fresh MTT solution (lymphocytes, HCT116 and HT29: 20 μl, 5 mg/ml in sterile PBS) was added to each […]
(§9) well for the next 4 h. […]

In data set [2] the test system is HCT116 human colorectal carcinoma cell line. In words: MTT cytotoxicity assay on HCT116 cells. It is filed as cell-based. As to conditions: 24 h incubation, 5 to 600 µM, mean ± SEM of six experiments.
Text: as §1, §2, §3, §4, §6, §7, §5, §8, §9

Usually IC50 stands for the midpoint of a concentration-inhibition curve. For orientation: melting point means the temperature, or range, at which the solid turns liquid. `COP(=O)(OC)C(Nc1cccc(C)c1)c1ccc2ccc3cccc4ccc1c2c34` (centres unmarked) [Compound 3Ai, dimethyl N-(m-methylphenyl)amino(pyren-1-yl)methylphosphonate]: the melting point fell in the range of 209 to 210 °C. This molecule came in with a concentration for half-maximal inhibition (IC50) in the data set with normal human lymphocytes (Homo sapiens, Lymphocyte, 24 h) of 75.8 µM. Also, the IC50 in data set [1] (Homo sapiens, HT-29, 24 h) came out at 57.5 µM. In data set [2] (Homo sapiens, HCT-116, 24 h), it took 20.2 µM to reach half-maximal inhibition (IC50).

As for `COP(=O)(OC)C(O)c1ccc2ccc3cccc4ccc1c2c34` (centres unmarked) [Compound 5A, dimethyl hydroxy(pyren-1-yl)methylphosphonate], the concentration for half-maximal inhibition (IC50) in the data set on normal human lymphocytes (Homo sapiens, Lymphocyte, 24 h) worked out at 136 µM; in data set [1] (Homo sapiens, HT-29, 24 h), 25.8 µM; in data set [2] (Homo sapiens, HCT-116, 24 h), 40.4 µM.

`Cc1ccc(NC(c2ccc3ccc4cccc5ccc2c3c45)P(=O)(O)O)cc1` (centres unmarked) [Compound 4c]: the melting point was 210 to 211 °C. Besides, in the data set on normal human lymphocytes (Homo sapiens, Lymphocyte, 24 h), the IC50 was about 17 µM. Moreover, the half-maximal inhibitory concentration (IC50) in data set [1] (Homo sapiens, HT-29, 24 h) is about 15 µM. For the same molecule, the concentration for half-maximal inhibition (IC50) in data set [2] (Homo sapiens, HCT-116, 24 h) is about 15 µM.

Regarding `COP(=O)(OC)C(Nc1ccccc1)c1ccc2ccc3cccc4ccc1c2c34` (centres unmarked) [Compound 3Ab], the melting point was in the range of 203 to 204 °C. The same molecule showed an IC50 in the data set with normal human lymphocytes (Homo sapiens, Lymphocyte, 24 h) of 334 µM. The molecule also yielded an IC50 in data set [1] (Homo sapiens, HT-29, 24 h) of 106 µM. Besides, the half-maximal inhibitory concentration (IC50) in data set [2] (Homo sapiens, HCT-116, 24 h) came out at 70.8 µM.

The molecule `O=P(OCc1ccccc1)(OCc1ccccc1)C(NCc1ccccc1)c1ccc2ccc3cccc4ccc1c2c34` (centres unmarked) had a melting point of 100 to 101 °C.

`O=P(O)(O)C(NCc1ccccc1)c1ccc2ccc3cccc4ccc1c2c34` (centres unmarked) showed a melting point of 235 to 236 °C.

On to `COc1ccc(NC(c2ccc3ccc4cccc5ccc2c3c45)P(=O)(OC)OC)cc1` (centres unmarked) [Compound 3Ad, dimethyl N-(4-methoxyphenyl)amino(pyren-1-yl)methylphosphonate], for which the IC50 with normal human lymphocytes is 231 µM; in the data set with normal human lymphocytes (Homo sapiens, Lymphocyte, 24 h), about 230 µM; in data set [1], 24.2 µM; in data set [1] (Homo sapiens, HT-29, 24 h), about 20 µM; in data set [2], 20.8 µM; in data set [2] (Homo sapiens, HCT-116, 24 h), about 20 µM.

Turning to `COP(=O)(OC)C(Nc1ccc(C)cc1)c1ccc2ccc3cccc4ccc1c2c34` (centres unmarked) [Compound 3Ac, dimethyl N-(4-methylphenyl)amino(pyren-1-yl)methylphosphonate], the IC50 in the data set on normal human lymphocytes (Homo sapiens, Lymphocyte, 24 h) amounted to 17.5 µM; in data set [1] (Homo sapiens, HT-29, 24 h), 15.8 µM; in data set [2] (Homo sapiens, HCT-116, 24 h) it was 15.9 µM.

As for `COP(=O)(OC)C(NCc1ccccc1)c1ccc2ccc3cccc4ccc1c2c34` (centres unmarked) [Compound 3Aa], the half-maximal inhibitory concentration (IC50) in the data set with normal human lymphocytes (Homo sapiens, Lymphocyte, 24 h) came out at 89.2 µM; in data set [1] (Homo sapiens, HT-29, 24 h), 29.2 µM; in data set [2] (Homo sapiens, HCT-116, 24 h), 29 µM.

Values taken from paper PMC4979872, “Synthesis, fluorescence properties and the promising cytotoxicity of pyrene–derived aminophosphonates” (Beilstein Journal of Organic Chemistry, 2016).
